# In patent US12667598B2, “Lactobacillus paracasei ATG-EI strain or composition comprising same for preventing or treating respiratory disease” (priority 2021, dated 2026):
# Experiments:
# [1] = system: PM10D-induced airway inflammation model; assay: FACS analysis of immune cells in bronchoalveolar lavage fluid (BALF); format: in vivo, Balb/c mice; settings: BAL, ATG-E1 4×10^9 CFU/mouse, Dexa 3 mg/kg, orally daily for 10 days
# Procedure: (§1) There were 8 Balb/c mice (male, 8 weeks old) per group, and all groups except a normal group were injected with a fine dust mixture using the Intra-Nazal-Trachea (INT) injection method described in literatures. The fine dust mixture contained diesel exhaust particles (DEP) (PM10 (Sigma)) and 1% (final concentration) of alum. The fine dust mixture was directly injected into the airways and noses of the experimental animals on days 4, 7, and 10 of the experiment. (Lim et al., Free Radic Biol Med. 25 (6), 635-644 (1998), Shin et al., Korean J. Mediclinal Crop Sci 27 (3), 218-231 (2019)). […] An autopsy was performed on the 11th day after the start of the experiment, and bronchoalveloar lavage fluid (BALF) and lung tissue were collected.
# Immune cell profiles (lymphocytes, neutrophils, macrophages, T cell subtypes, Gr-1^+CD11b^+, etc.) were measured by fluorescence-activated cell sorting (FACS) analysis of bronchoalveolar lavage fluid isolated from each individual after the end of the experiment in Example 3-1.
# [2] = system: PM10D-induced airway inflammation model; assay: FACS analysis of immune cells in cells isolated from lung tissue; format: in vivo, Balb/c mice; settings: ATG-E1 4×10^9 CFU/mouse, Dexa 3 mg/kg, orally daily for 10 days
# Procedure: as §1
# Immune cell profiles (lymphocytes, neutrophils, macrophages, T cell subtypes, Gr-1^+CD11b^+, etc.) were measured by fluorescence-activated cell sorting (FACS) analysis of […] lung tissue of each individual after the end of the experiment in Example 3-1.
structure (smiles),measurement,setting,value
"C[C@@H]1C[C@H]2[C@@H]3CCC4=CC(=O)C=C[C@]4(C)[C@@]3(F)[C@@H](O)C[C@]2(C)[C@@]1(O)C(=O)CO [Dexa, dexamethasone]",CD4^+ (Absolute No.),"[1]; NC 0.07, CTL 5.26",3.43 ± 0.58 ×10^7 cells
same,Lymphocytes (Absolute No.),"[1]; NC 0.08, CTL 0.82",0.96 ± 0.53 ×10^7 cells
same,CD4^+CD69^+ (Absolute No.),"[1]; NC 0.08, CTL 1.73",1.40 ± 0.19 ×10^7 cells
same,CD8^+ (Absolute No.),"[1]; NC 0.14, CTL 3.72",2.80 ± 0.71 ×10^7 cells
same,Gr-1^+CD11b^+ (Absolute No.),"[1]; NC 0.34, CTL 1.62",1.38 ± 0.12 ×10^7 cells
same,CD62L^−CD44^+high (Absolute No.),"[1]; NC 0.99, CTL 6.40",5.95 ± 0.85 ×10^7 cells
same,Macrophage (Absolute No.),"[1]; NC 1.18, CTL 1.82",2.29 ± 0.28 ×10^7 cells
same,Neutrophils (Absolute No.),"[1]; NC 3.59, CTL 15.09",15.01 ± 2.14 ×10^7 cells
same,Gr-1^+CD11b^+ (Absolute No.),"[2]; NC 0.17, CTL 1.07",0.60 ± 0.08 ×10^7cells
same,CD4^+CD69^+ (Absolute No.),"[2]; NC 0.20, CTL 3.01",0.29 ± 0.07 ×10^7 cells
same,CD21/35 + B220^+ (Absolute No.),"[2]; NC 0.27, CTL 3.40",1.35 ± 0.32 ×10^7 cells
same,CD62L^−CD44^+high (Absolute No.),"[2]; NC 0.35, CTL 2.53",1.27 ± 0.15 ×10^7 cells
same,CD8^+ (Absolute No.),"[2]; NC 1.11, CTL 3.46",1.92 ± 0.18 ×10^7 cells
same,Eosinophils (Absolute No.),"[2]; NC 1.56, CTL 6.87",3.41 ± 1.06 ×10^7 cells
same,CD4^+ (Absolute No.),"[2]; NC 1.97, CTL 6.13",3.32 ± 0.42 ×10^7cells
same,Lymphocytes (Absolute No.),"[2]; NC 2.60, CTL 3.17",9.34 ± 6.56 ×10^7 cells
same,Neutrophils (Absolute No.),"[2]; NC 3.03, CTL 12.04",3.41 ± 0.83 ×10^7 cells
